Experimental data published in ChEMBL document CHEMBL1201862, “PubChem BioAssay data set” (2004).
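How tested: cells in 96-well plates exposed to compound for 48 hours at five concentrations. The concentration for 50% growth inhibition is given as GI50.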 Calls of active or inactive are those of the source. No stated cut-off is given here; in the data, active = GI50 up to about 1.1 µM and inactive = higher.

Experiments:
Assay in all cases: DTP human tumour cell line panel, 48 h
ACHN = tested on: ACHN
SK-MEL-2 = tested on: SK-MEL-2
LOX IMVI = tested on: LOX IMVI
SK-MEL-5 = tested on: SK-MEL-5
MDA-N = tested on: MDA-N
HCT-116 = tested on: HCT-116
HCT-15 = tested on: HCT-15
SR = tested on: SR
786-0 = tested on: 786-0
NCI-H23 = tested on: NCI-H23
TK-10 = tested on: TK-10
SK-MEL-28 = tested on: SK-MEL-28
U-251 = tested on: U-251
SNB-19 = tested on: SNB-19
RPMI-8226 = tested on: RPMI-8226
OVCAR-8 = tested on: OVCAR-8
EKVX = tested on: EKVX
KM12 = tested on: KM12
SK-OV-3 = tested on: SK-OV-3
SF-539 = tested on: SF-539

Structure (SMILES)	GI50 (ACHN)	GI50 (SK-MEL-2)	GI50 (LOX IMVI)	GI50 (SK-MEL-5)	GI50 (MDA-N)	GI50 (HCT-116)	GI50 (HCT-15)	GI50 (SR)	GI50 (786-0)	GI50 (NCI-H23)	GI50 (TK-10)	GI50 (SK-MEL-28)	GI50 (U-251)	GI50 (SNB-19)	GI50 (RPMI-8226)	GI50 (OVCAR-8)	GI50 (EKVX)	GI50 (KM12)	GI50 (SK-OV-3)	GI50 (SF-539)
Cc1ccc(/N=N/C(=O)NNc2ccc(C)c([N+](=O)[O-])c2)cc1[N+](=O)[O-]	24.8 µM (inactive)	14.2 µM (inactive)	17.3 µM (inactive)	22.9 µM (inactive)	32.7 µM (inactive)	23.7 µM (inactive)	30.1 µM	18.9 µM (inactive)	28.2 µM (inactive)	30.2 µM (inactive)	45.1 µM (inactive)	26.1 µM (inactive)	29.9 µM (inactive)	36.3 µM (inactive)	19.9 µM (inactive)	26.2 µM (inactive)	–	–	–	–
C/C(=N\NC(N)=S)c1ccccn1.OB(O)c1ccccc1	2.04 µM (inactive)	–	2.58 µM (inactive)	4.63 µM (inactive)	7.53 µM (inactive)	3.5 µM (inactive)	2.84 µM	3.95 µM (inactive)	3.73 µM (inactive)	11.3 µM (inactive)	14 µM (inactive)	9.23 µM (inactive)	3.28 µM (inactive)	10.5 µM (inactive)	5.87 µM (inactive)	3.63 µM (inactive)	4.69 µM (inactive)	7.45 µM (inactive)	5.57 µM (inactive)	3.6 µM (inactive)
C/C(=C\C(=N\NC(=N)N)c1ccccc1)c1ccccc1	0.2 µM (active)	–	1.23 µM (inactive)	0.281 µM (active)	0.973 µM (active)	0.273 µM (active)	1.99 µM	2.18 µM (inactive)	0.843 µM (active)	0.354 µM (active)	1.17 µM (inactive)	2.58 µM (inactive)	0.652 µM (active)	1.6 µM (inactive)	1.01 µM (active)	1.24 µM (inactive)	–	1.17 µM (inactive)	4.3 µM (inactive)	0.432 µM (active)
COc1ccc(/N=N/c2c(O)ccc3ccccc23)cc1	20.4 µM (inactive)	35.6 µM (inactive)	49.2 µM (inactive)	–	> 100 µM (inactive)	> 100 µM (inactive)	57.8 µM	14.8 µM (inactive)	61.8 µM (inactive)	32.9 µM (inactive)	17.1 µM (inactive)	> 100 µM (inactive)	15.8 µM (inactive)	–	–	13.2 µM (inactive)	14.3 µM (inactive)	12.1 µM (inactive)	8.2 µM (inactive)	–
C/C(=N\Nc1ccc([N+](=O)[O-])cc1[N+](=O)[O-])c1ccc2ccccc2n1	42.8 µM (inactive)	> 100 µM (inactive)	–	47.1 µM (inactive)	> 100 µM (inactive)	57.4 µM (inactive)	60.3 µM	97.9 µM (inactive)	78.3 µM (inactive)	> 100 µM (inactive)	39.6 µM (inactive)	> 100 µM (inactive)	33.1 µM (inactive)	20 µM (inactive)	> 100 µM (inactive)	47.3 µM (inactive)	> 100 µM (inactive)	> 100 µM (inactive)	> 100 µM (inactive)	81.8 µM (inactive)
N#Cc1c(O)c2ccccc2[nH]c1=O	> 100 µM (inactive)	> 100 µM (inactive)	> 100 µM (inactive)	> 100 µM (inactive)	> 100 µM (inactive)	> 100 µM (inactive)	> 100 µM	–	> 100 µM (inactive)	> 100 µM (inactive)	> 100 µM (inactive)	> 100 µM (inactive)	> 100 µM (inactive)	> 100 µM (inactive)	> 100 µM (inactive)	> 100 µM (inactive)	> 100 µM (inactive)	> 100 µM (inactive)	> 100 µM (inactive)	> 100 µM (inactive)
COC(=O)C1(C(=O)OC)CC(=O)c2c(OC(=O)c3cccc(OC)c3C#N)ccc(OC(=O)c3cccc(OC)c3C#N)c2C1	> 100 µM (inactive)	–	> 100 µM (inactive)	> 100 µM (inactive)	> 100 µM (inactive)	> 100 µM (inactive)	> 100 µM	26.9 µM (inactive)	> 100 µM (inactive)	> 100 µM (inactive)	> 100 µM (inactive)	> 100 µM (inactive)	> 100 µM (inactive)	> 100 µM (inactive)	39.1 µM (inactive)	> 100 µM (inactive)	> 100 µM (inactive)	> 100 µM (inactive)	> 100 µM (inactive)	> 100 µM (inactive)
BrCCCCCOc1ccc(-c2c3ccccc3c(-c3ccc(OCCCCCBr)cc3)c3ccccc23)cc1	> 100 µM (inactive)	> 100 µM (inactive)	–	> 100 µM (inactive)	> 100 µM (inactive)	> 100 µM (inactive)	> 100 µM	> 100 µM (inactive)	> 100 µM (inactive)	–	> 100 µM (inactive)	> 100 µM (inactive)	> 100 µM (inactive)	> 100 µM (inactive)	> 100 µM (inactive)	> 100 µM (inactive)	> 100 µM (inactive)	> 100 µM (inactive)	> 100 µM (inactive)	> 100 µM (inactive)
CCC1C(c2cccc(OC)c2O)c2cc3c(cc2OC1N1CCCC1)OCO3 (stereo not given)	15 µM (inactive)	17.1 µM (inactive)	23.3 µM (inactive)	10.4 µM (inactive)	3.24 µM (inactive)	8.47 µM (inactive)	12.2 µM	14.9 µM (inactive)	16.1 µM (inactive)	26.4 µM (inactive)	16.4 µM (inactive)	16.3 µM (inactive)	–	14.6 µM (inactive)	12.6 µM (inactive)	20.6 µM (inactive)	22.8 µM (inactive)	12 µM (inactive)	–	12.2 µM (inactive)
CC(=O)NNC1=NN(C(C)=O)C2(S1)C(=O)Nc1ccc(C)cc12 (stereo not given)	34.2 µM (inactive)	–	> 100 µM (inactive)	68.5 µM (inactive)	> 100 µM (inactive)	> 100 µM (inactive)	50 µM	55.5 µM (inactive)	84.1 µM (inactive)	> 100 µM (inactive)	38.5 µM (inactive)	78.3 µM (inactive)	41.7 µM (inactive)	52.5 µM (inactive)	34.8 µM (inactive)	83.6 µM (inactive)	78.9 µM (inactive)	57.7 µM (inactive)	–	> 100 µM (inactive)
CC1(c2sccc2Cl)CC(c2sccc2Cl)=C(C#N)C(=C(C#N)C#N)N1 (stereo not given)	18.5 µM (inactive)	20.3 µM (inactive)	19.2 µM (inactive)	18.5 µM (inactive)	17.3 µM (inactive)	17.2 µM (inactive)	17.9 µM	–	18.4 µM (inactive)	17.9 µM (inactive)	17.2 µM (inactive)	18.2 µM (inactive)	18.5 µM (inactive)	18.3 µM (inactive)	36.1 µM (inactive)	20.8 µM (inactive)	18.7 µM (inactive)	20.9 µM (inactive)	17.5 µM (inactive)	19.8 µM (inactive)
COC1(OC)N=C(N)C2(C#N)C3(C(=O)N(C(C)C)N=C3C)C12C#N (stereo not given)	> 100 µM (inactive)	> 100 µM (inactive)	–	–	> 100 µM (inactive)	> 100 µM (inactive)	> 100 µM	> 100 µM (inactive)	> 100 µM (inactive)	> 100 µM (inactive)	–	> 100 µM (inactive)	> 100 µM (inactive)	> 100 µM (inactive)	> 100 µM (inactive)	> 100 µM (inactive)	> 100 µM (inactive)	> 100 µM (inactive)	> 100 µM (inactive)	> 100 µM (inactive)
O=[N+]([O-])c1cccc(-c2ncc3c(n2)-c2ccccc2C3)c1	> 100 µM (inactive)	> 100 µM (inactive)	–	> 100 µM (inactive)	> 100 µM (inactive)	> 100 µM (inactive)	> 100 µM	> 100 µM (inactive)	22.9 µM (inactive)	> 100 µM (inactive)	47.1 µM (inactive)	> 100 µM (inactive)	93.8 µM (inactive)	30.3 µM (inactive)	> 100 µM (inactive)	> 100 µM (inactive)	94.4 µM (inactive)	> 100 µM (inactive)	> 100 µM (inactive)	> 100 µM (inactive)
COC(=O)c1ccc2c(c1)CC1(C2)Cc2cc3c(c(C(=O)OC)c2C1)CCCC3 (stereo not given)	47.8 µM (inactive)	–	51.4 µM (inactive)	21.2 µM (inactive)	93.1 µM (inactive)	44.6 µM (inactive)	67.8 µM	69.5 µM (inactive)	64.1 µM (inactive)	65.5 µM (inactive)	72.1 µM (inactive)	> 100 µM (inactive)	61.7 µM (inactive)	–	38.4 µM (inactive)	> 100 µM (inactive)	60 µM (inactive)	> 100 µM (inactive)	41.7 µM (inactive)	> 100 µM (inactive)
CC(=O)O[C@H]1C(=O)[C@@]2(C)[C@H]([C@H](OC(=O)c3cccc(C(F)(F)F)c3)[C@]3(O)C[C@H](OC(=O)[C@H](O)[C@@H](NC(=O)c4ccccc4)c4ccccc4)C(C)=C1C3(C)C)[C@]1(OC(C)=O)CO[C@@H]1C[C@@H]2O	0.377 µM (active)	–	–	< 0.0025 µM (active)	< 0.0025 µM (active)	< 0.0025 µM (active)	0.268 µM	< 0.0025 µM (active)	0.00439 µM (active)	0.0115 µM (active)	0.175 µM (active)	1.89 µM (inactive)	< 0.0025 µM (active)	0.0889 µM (active)	< 0.0025 µM (active)	0.00252 µM (active)	–	< 0.0025 µM (active)	0.0288 µM (active)	< 0.0025 µM (active)
